The values that follow come from patent publication US20250145948A1, “METHOD FOR ASSESSING DIFFERENTIATION POTENTIAL OF CELLS IN CULTURE BROTH IN DIFFERENTIATION OF PLURIPOTENT STEM CELLS INTO NEURAL CELLS OF MIDBRAIN FLOOR PLATE REGION” (SUMITOMO PHARMA CO., LTD., priority 2022, published 2025).

Experiment [1] has as its system iPS cell line (1231A3). Put plainly: Concentration analysis of NT-3 in culture supernatant (Bioplex). It is filed as cell-based, human. As to conditions: cell group A1 (SAG 300 nM pretreatment). The protocol: (§1) An iPS cell line (formal name: 1231A3) as a line for research was used and cultured in a medium having composition given below. The medium was supplemented (with pretreatment) with SAG (N-Methyl-N′-(3-pyridinylbenzyl)-N′-(3-chlorobenzo[b]thiophene-2-carbonyl)-1,4-diaminocyclohexane, final concentration: 300 nM) for 1 day from 1 day before the start of differentiation culture (Day −1) to the start day of differentiation (Day 0) to establish a cell group having high induction efficiency (cell group A1). An untreated cell group (cell group A2) was also established for comparison by cell culture under the same conditions as in the cell group A1 except that the medium was not supplemented with SAG.
(§2) The pluripotent stem cells in each of six types of cell groups provided in the culture experiments A, B, and C were induced to differentiate into neural cells of the midbrain floor plate region in accordance with a predetermined protocol. […] The ratio of Corin-positive cells in each cell group was measured using a cell sorter (BD FACSJazz, BD Accuri or Furukawa PERFLOW Sort) on 12 days from the start of differentiation. […]

The subject of experiment [2] is iPS cell line (1231A3). Put plainly: Ratio of Corin-positive cells after induction of differentiation into neural cells of the midbrain floor plate region (cell sorter). It counts as cell-based, human. The note with it: cell group A1: pretreatment with SAG 300 nM from Day -1 to Day 0; culture day 12 for the induction of differentiation. The protocol: as §1
As for the medium in the culture experiment A, AK03N basal medium manufactured by Ajinomoto Co., Inc. was used before the start of differentiation, and GMEM containing 8% KSR was used as a basal medium at and after the start of differentiation (Day 0).
as §2

`CNC1CCC(N(Cc2cccc(-c3ccncc3)c2)C(=O)c2sc3ccccc3c2Cl)CC1` (stereo not drawn) [SAG, N-Methyl-N′-(3-pyridinylbenzyl)-N′-(3-chlorobenzo[b]thiophene-2-carbonyl)-1,4-diaminocyclohexane]: the “NT-3 in culture supernatant” value in experiment [1] (sample collected 3 days after the start of differentiation) is “specifically increased”; in experiment [1] (samples collected 1 day and 5 days after the start of differentiation), “not detected”. In experiment [2], the “ratio of Corin-positive cells” value turned out to be 90%.
